Data set [1] is described as follows: Visual dissolution and physical stability of bortezomib formulations with low concentrations of benzyl alcohol or DMSO in water. Format: physicochemical. Particulars: target 2.5 mg/mL; benzyl alcohol (2% v/v), DMSO (5% v/v) or combination, water added afterwards. Here is the method:
Initial formulation experiments with low concentrations of various non-aqueous solvents were conducted targeting a bortezomib concentration of 2.5 mg/mL. Attempts to solubilize bortezomib were conducted using low concentrations of benzyl alcohol (2% v/v), or dimethyl sulfoxide (5% v/v), or a combination of these solvents. […] For these formulations, the non-aqueous solvent was added to bortezomib to dissolve it, followed by addition of water to the bortezomib-solvent mixture.
Various concentrations of DMSO were explored as the non-aqueous component of the formulation (2% v/v to 5% v/v in water). Bortezomib was first completely dissolved in the batch volume of DMSO to form a concentrated “premix” solution prior to making up the batch to the target concentration (2.5 mg/mL) with water. This was done to facilitate the subsequent dissolution of bortezomib in the aqueous component.

Data set [2] can be described thus: Estimated solubility of bortezomib in select non-aqueous solvents (visual, incremental solvent addition). Format: physicochemical. Particulars: for Observation: approximately 25 mg. Here is the method: The appearance of the solution was recorded.

Consider `CC(C)C[C@H](NC(=O)[C@H](Cc1ccccc1)NC(=O)c1cnccn1)B(O)O` [Bortezomib, [(1R)-3-methyl-1-[[(2S)-1-oxo-3-phenyl-2-[(pyrazinylcarbonyl)amino]propyl]amino]butyl] boronic acid], for which the “Outcome of dissolution attempt” value in data set [1] is “precipitated after addition of water”. The Observation result is recorded as “Completely dissolved after 1 mL” in data set [2] (N-methyl pyrrolidone (NMP)); “Completely dissolved after 0.5 mL” in data set [2] (benzyl alcohol); “Completely dissolved after 0.5 mL” in data set [2] (dimethyl sulfoxide (DMSO)); “No significant dissolution observed up” in data set [2] (glycerol, up to 10 mL); “No significant dissolution observed up” in data set [2] (polyethylene glycol 400, up to 10 mL). Moreover, the “Observation: solvent needed to dissolve approximately 25 mg” value in data set [2] (alcohol (ethanol)) is given as “Approximately 5.5 mL of solvent”; in data set [2] (propylene glycol), “Approximately 7 mL of solvent needed”.

(Values after patent US11672813B2, “Bortezomib compositions” (MAIA Pharmaceuticals, Inc., priority 2021, dated 2023).)
